Values of other authors as cited in patent US20010001790A1, “TOPICAL FORMULATIONS COMPRISING SKIN PENETRATION AGENTS AND THE USE THEREOF” (priority 1999, published 2001).

Settings: propylene glycol vehicle; upon addition of cetyl alcohol at 3% by weight

## CC1(C)O[C@@H]2C[C@H]3[C@@H]4CCC5=CC(=O)C=C[C@]5(C)[C@@]4(F)[C@@H](O)C[C@]3(C)[C@]2(C(=O)CO)O1 [triamcinolone acetonide]
  reduction of skin penetration of the pharmaceutically active agent: 39%
